Results: EP1247803A2, “Indolinone compounds suitable for modulation of protein kinases” (Sugen, Inc., priority 1996, dated 1998)

How the values were obtained:
[1] = biological target: PDGF-R (Homo sapiens, UniProt P09619); experiment: PDGF-R ELISA; assay type: cell-based
Excerpt: A PDGF-R ELISA is described in International Patent Publication No. WO 96/40116, published December 19, 1996 by Tang et al.

[2] = biological target: T1, EGFR (Homo sapiens, UniProt P00533); experiment: EGFR ELISA assay (in vitro kinase activity, EGFR captured from A431 cell lysate); assay type: biochemical; set-up: concentration or dose not given beside the values
T1 construct: Add 7 ug A431 cell lysate per well (EGFR source); endogenous in cells; host or cells: A431
T1 sequence (P00533 25-1210): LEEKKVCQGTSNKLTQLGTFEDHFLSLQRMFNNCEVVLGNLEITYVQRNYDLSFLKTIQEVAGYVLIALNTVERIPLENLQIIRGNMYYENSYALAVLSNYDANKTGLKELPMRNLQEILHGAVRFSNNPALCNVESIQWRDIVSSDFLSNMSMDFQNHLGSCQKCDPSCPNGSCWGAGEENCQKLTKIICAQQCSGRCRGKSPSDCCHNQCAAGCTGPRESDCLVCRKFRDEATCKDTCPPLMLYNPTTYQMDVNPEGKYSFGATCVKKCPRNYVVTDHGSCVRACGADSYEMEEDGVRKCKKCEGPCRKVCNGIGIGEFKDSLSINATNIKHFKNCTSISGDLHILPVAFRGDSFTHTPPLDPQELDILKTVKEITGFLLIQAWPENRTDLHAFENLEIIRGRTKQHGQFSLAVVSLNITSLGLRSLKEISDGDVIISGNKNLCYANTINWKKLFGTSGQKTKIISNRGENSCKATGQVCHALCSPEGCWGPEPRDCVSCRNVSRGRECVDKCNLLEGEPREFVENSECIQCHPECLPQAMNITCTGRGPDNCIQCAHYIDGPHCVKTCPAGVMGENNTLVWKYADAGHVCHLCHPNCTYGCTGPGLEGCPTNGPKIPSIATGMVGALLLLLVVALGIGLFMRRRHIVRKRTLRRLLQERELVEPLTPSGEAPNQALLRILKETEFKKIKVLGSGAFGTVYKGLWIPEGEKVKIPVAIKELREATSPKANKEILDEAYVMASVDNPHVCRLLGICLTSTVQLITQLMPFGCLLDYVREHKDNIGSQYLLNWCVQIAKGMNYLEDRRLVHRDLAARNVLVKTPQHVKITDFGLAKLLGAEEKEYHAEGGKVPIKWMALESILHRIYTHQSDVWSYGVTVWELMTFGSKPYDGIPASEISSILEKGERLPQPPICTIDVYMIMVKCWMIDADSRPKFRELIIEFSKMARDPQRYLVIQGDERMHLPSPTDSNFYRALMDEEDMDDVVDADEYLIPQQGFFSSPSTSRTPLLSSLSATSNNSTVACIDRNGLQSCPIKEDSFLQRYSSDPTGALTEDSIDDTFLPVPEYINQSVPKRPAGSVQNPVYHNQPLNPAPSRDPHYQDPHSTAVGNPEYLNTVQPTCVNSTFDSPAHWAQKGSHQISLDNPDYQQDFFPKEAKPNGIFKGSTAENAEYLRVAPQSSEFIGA
Summary of the method: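 Receptor autophosphorylation was read by ELISA: anti-phosphotyrosine serum and an HRP-linked secondary with ABTS substrate, absorbance at 410 nm (reference 630 nm). The reaction ran 5 min with 3 µM ATP and 5 mM MnCl2 and was quenched by 20 mM EDTA. Compounds were first incubated 30 min with antibody-captured EGFR from A431 cell lysate.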

[3] = test system: MET; experiment: MET biochemical kinase assay; set-up: species or system human; concentration or dose not given beside the values
Summary of the method: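 Colorimetric signal from an HRP-linked anti-phosphotyrosine antibody with TMB measures phosphate incorporated into immobilised MET. The receptor is pulled from lysates by a polyclonal antibody against its cytoplasmic domain, then reacts in ATP- and metal-containing buffer with test compound.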

Chain of PDGF-R (P09619 33-1106, species assumed): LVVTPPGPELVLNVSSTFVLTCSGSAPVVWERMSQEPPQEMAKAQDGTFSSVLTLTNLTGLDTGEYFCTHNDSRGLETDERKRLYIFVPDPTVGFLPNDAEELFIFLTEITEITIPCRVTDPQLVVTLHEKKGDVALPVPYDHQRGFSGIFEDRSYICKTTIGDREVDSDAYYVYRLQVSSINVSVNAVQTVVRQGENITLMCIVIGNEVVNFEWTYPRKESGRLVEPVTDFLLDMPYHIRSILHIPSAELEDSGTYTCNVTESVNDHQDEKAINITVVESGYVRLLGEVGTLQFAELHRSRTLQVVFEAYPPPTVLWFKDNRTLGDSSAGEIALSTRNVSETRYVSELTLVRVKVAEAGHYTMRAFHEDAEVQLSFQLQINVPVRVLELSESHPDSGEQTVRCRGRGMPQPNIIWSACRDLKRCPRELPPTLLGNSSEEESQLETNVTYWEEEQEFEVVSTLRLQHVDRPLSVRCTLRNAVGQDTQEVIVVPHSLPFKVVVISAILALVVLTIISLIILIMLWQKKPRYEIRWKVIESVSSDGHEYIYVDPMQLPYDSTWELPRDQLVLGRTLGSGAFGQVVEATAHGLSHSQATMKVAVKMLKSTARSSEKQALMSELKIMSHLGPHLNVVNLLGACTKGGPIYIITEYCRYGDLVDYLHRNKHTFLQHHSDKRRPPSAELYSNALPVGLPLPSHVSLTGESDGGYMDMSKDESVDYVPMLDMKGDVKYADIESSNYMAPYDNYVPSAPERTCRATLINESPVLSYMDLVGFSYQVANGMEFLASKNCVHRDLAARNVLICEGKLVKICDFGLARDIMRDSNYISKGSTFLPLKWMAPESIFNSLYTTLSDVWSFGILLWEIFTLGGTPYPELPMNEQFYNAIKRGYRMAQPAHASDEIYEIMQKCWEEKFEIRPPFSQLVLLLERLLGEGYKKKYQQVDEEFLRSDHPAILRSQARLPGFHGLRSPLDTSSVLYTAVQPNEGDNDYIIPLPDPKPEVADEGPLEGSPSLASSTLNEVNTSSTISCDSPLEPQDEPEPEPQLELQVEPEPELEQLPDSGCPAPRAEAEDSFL

CCN(CC)c1ccc(C=C2C(=O)Nc3c(Br)cc(Br)cc32)cc1 [10727/A02]
PDGF Kinase %Inhibition [1]: -10.3%
Biochem EGFR %Inhibition [2]: 3.2%
Met Kinase % Inhibition [3]: 52.0%

CCc1cc(CC)c(C=C2C(=O)Nc3c(Br)cc(Br)cc32)[nH]1 [10727/A03]
PDGF Kinase %Inhibition [1]: -4.5%
Biochem EGFR %Inhibition [2]: -19.2%
Met Kinase % Inhibition [3]: 40.7%

O=C1Nc2c(Br)cc(Br)cc2C1=Cc1cc(Cl)cc(Br)c1O [10727/A04]
PDGF Kinase %Inhibition [1]: 12.3%
Biochem EGFR %Inhibition [2]: 28.2%
Met Kinase % Inhibition [3]: 80.9%

O=C1Nc2c(Br)cc(Br)cc2C1=Cc1ccccc1Sc1ccc(Cl)cc1 [10727/A05]
PDGF Kinase %Inhibition [1]: 5.7%
Biochem EGFR %Inhibition [2]: -3.0%
Met Kinase % Inhibition [3]: 29.0%

O=C1Nc2c(Br)cc(Br)cc2C1=Cc1cc2c(cc1Cl)OCO2 [10727/A06]
PDGF Kinase %Inhibition [1]: 13.7%
Biochem EGFR %Inhibition [2]: -6.3%
Met Kinase % Inhibition [3]: 32.7%

O=C1Nc2c(Br)cc(Br)cc2C1=Cc1coc2ccccc2c1=O [10727/A07]
PDGF Kinase %Inhibition [1]: 12.3%
Biochem EGFR %Inhibition [2]: -3.7%
Met Kinase % Inhibition [3]: 61.1%

N#Cc1cccc(C=C2C(=O)Nc3c(Br)cc(Br)cc32)c1 [10727/A08]
PDGF Kinase %Inhibition [1]: 15.2%
Biochem EGFR %Inhibition [2]: 9.7%
Met Kinase % Inhibition [3]: 9.7%

N#Cc1ccc(C=C2C(=O)Nc3c(Br)cc(Br)cc32)cc1 [10727/A09]
PDGF Kinase %Inhibition [1]: 16.6%
Biochem EGFR %Inhibition [2]: 12.7%
Met Kinase % Inhibition [3]: 44.2%

O=C1Nc2c(Br)cc(Br)cc2C1=Cc1cc(O)ccc1O [10727/A10]
PDGF Kinase %Inhibition [1]: 18.1%
Biochem EGFR %Inhibition [2]: 89.0%
Met Kinase % Inhibition [3]: 95.2%

COc1cccc(C=C2C(=O)Nc3c(Br)cc(Br)cc32)c1OC [10727/A11]
PDGF Kinase %Inhibition [1]: 10.8%
Biochem EGFR %Inhibition [2]: 6.2%
Met Kinase % Inhibition [3]: 16.5%

CCN(CC)c1ccc(C=C2C(=O)Nc3ccc(I)cc32)cc1 [10727/B02]
PDGF Kinase %Inhibition [1]: -10.3%
Biochem EGFR %Inhibition [2]: -18.4%
Met Kinase % Inhibition [3]: 90.5%

CCc1cc(CC)c(C=C2C(=O)Nc3ccc(I)cc32)[nH]1 [10727/B03]
PDGF Kinase %Inhibition [1]: -7.4%
Biochem EGFR %Inhibition [2]: -2.8%
Met Kinase % Inhibition [3]: 84.5%

O=C1Nc2ccc(I)cc2C1=Cc1cc(Cl)cc(Br)c1O [10727/B04]
PDGF Kinase %Inhibition [1]: 21.0%
Biochem EGFR %Inhibition [2]: 47.4%
Met Kinase % Inhibition [3]: 87.1%

O=C1Nc2ccc(I)cc2C1=Cc1ccccc1Sc1ccc(Cl)cc1 [10727/B05]
PDGF Kinase %Inhibition [1]: 9.4%
Biochem EGFR %Inhibition [2]: 39.0%
Met Kinase % Inhibition [3]: 83.3%

O=C1Nc2ccc(I)cc2C1=Cc1cc2c(cc1Cl)OCO2 [10727/B06]
PDGF Kinase %Inhibition [1]: 6.4%
Biochem EGFR %Inhibition [2]: 40.7%
Met Kinase % Inhibition [3]: 91.0%

O=C1Nc2ccc(I)cc2C1=Cc1coc2ccccc2c1=O [10727/B07]
PDGF Kinase %Inhibition [1]: 0.6%
Biochem EGFR %Inhibition [2]: 46.5%
Met Kinase % Inhibition [3]: 83.5%

N#Cc1cccc(C=C2C(=O)Nc3ccc(I)cc32)c1 [10727/B08]
PDGF Kinase %Inhibition [1]: 14.4%
Biochem EGFR %Inhibition [2]: 47.4%
Met Kinase % Inhibition [3]: 90.7%

N#Cc1ccc(C=C2C(=O)Nc3ccc(I)cc32)cc1 [10727/B09]
PDGF Kinase %Inhibition [1]: 18.1%
Biochem EGFR %Inhibition [2]: 31.7%
Met Kinase % Inhibition [3]: 81.9%

O=C1Nc2ccc(I)cc2C1=Cc1cc(O)ccc1O [10727/B10]
PDGF Kinase %Inhibition [1]: 29.7%
Biochem EGFR %Inhibition [2]: 94.0%
Met Kinase % Inhibition [3]: 99.2%

COc1cccc(C=C2C(=O)Nc3ccc(I)cc32)c1OC [10727/B11]
PDGF Kinase %Inhibition [1]: 15.9%
Biochem EGFR %Inhibition [2]: 6.9%
Met Kinase % Inhibition [3]: 69.8%

CCN(CC)c1ccc(C=C2C(=O)Nc3ccc(Br)c(C)c32)cc1 [10727/C02]
PDGF Kinase %Inhibition [1]: -12.5%
Biochem EGFR %Inhibition [2]: -28.5%
Met Kinase % Inhibition [3]: 73.8%

CCc1cc(CC)c(C=C2C(=O)Nc3ccc(Br)c(C)c32)[nH]1 [10727/C03]
PDGF Kinase %Inhibition [1]: 11.5%
Biochem EGFR %Inhibition [2]: 14.6%
Met Kinase % Inhibition [3]: 11.9%

Cc1c(Br)ccc2c1C(=Cc1cc(Cl)cc(Br)c1O)C(=O)N2 [10727/C04]
PDGF Kinase %Inhibition [1]: 23.2%
Biochem EGFR %Inhibition [2]: 27.6%
Met Kinase % Inhibition [3]: 81.7%

Cc1c(Br)ccc2c1C(=Cc1ccccc1Sc1ccc(Cl)cc1)C(=O)N2 [10727/C05]
PDGF Kinase %Inhibition [1]: 7.9%
Biochem EGFR %Inhibition [2]: 11.8%
Met Kinase % Inhibition [3]: 8.9%

Cc1c(Br)ccc2c1C(=Cc1cc3c(cc1Cl)OCO3)C(=O)N2 [10727/C06]
PDGF Kinase %Inhibition [1]: 12.3%
Biochem EGFR %Inhibition [2]: 5.6%
Met Kinase % Inhibition [3]: 45.2%

Cc1c(Br)ccc2c1C(=Cc1coc3ccccc3c1=O)C(=O)N2 [10727/C07]
PDGF Kinase %Inhibition [1]: 13.0%
Biochem EGFR %Inhibition [2]: 8.4%
Met Kinase % Inhibition [3]: 36.7%

Cc1c(Br)ccc2c1C(=Cc1cccc(C#N)c1)C(=O)N2 [10727/C08]
PDGF Kinase %Inhibition [1]: 23.2%
Biochem EGFR %Inhibition [2]: 3.6%
Met Kinase % Inhibition [3]: 47.8%

Cc1c(Br)ccc2c1C(=Cc1ccc(C#N)cc1)C(=O)N2 [10727/C09]
PDGF Kinase %Inhibition [1]: 21.7%
Biochem EGFR %Inhibition [2]: 16.6%
Met Kinase % Inhibition [3]: 37.9%

Cc1c(Br)ccc2c1C(=Cc1cc(O)ccc1O)C(=O)N2 [10727/C10]
PDGF Kinase %Inhibition [1]: 45.7%
Biochem EGFR %Inhibition [2]: 85.3%
Met Kinase % Inhibition [3]: 94.4%

COc1cccc(C=C2C(=O)Nc3ccc(Br)c(C)c32)c1OC [10727/C11]
PDGF Kinase %Inhibition [1]: 22.4%
Biochem EGFR %Inhibition [2]: -15.6%
Met Kinase % Inhibition [3]: 14.5%

CCN(CC)c1ccc(C=C2C(=O)Nc3ccc(S(=O)(=O)NC)cc32)cc1 [10727/D02]
PDGF Kinase %Inhibition [1]: 5.7%
Biochem EGFR %Inhibition [2]: 22.6%
Met Kinase % Inhibition [3]: 51.6%

CCc1cc(CC)c(C=C2C(=O)Nc3ccc(S(=O)(=O)NC)cc32)[nH]1 [10727/D03]
PDGF Kinase %Inhibition [1]: -3.0%
Biochem EGFR %Inhibition [2]: 39.4%
Met Kinase % Inhibition [3]: 24.0%
